# Assay results: the NIST ThermoML archive (doi:10.1021/je400471m)
# Numbers after ± are expanded uncertainties.
# Assays:
# [1] = refractive index (Na D-line) (dimensionless); wn = mass fraction of the nth substance listed; conditions: 338.15 K, 98 kPa, Liquid, Standard Abbe refractometry
# [2] = refractive index (Na D-line) (dimensionless); conditions: 338.15 K; 98 kPa; Liquid; Standard Abbe refractometry
structure (smiles),measurement,setting,value
CCO [ethanol] + O,refractive index,[1]; w1 = 0.2,1.3363 ± 0.0096
same,refractive index,[1]; w1 = 0.4,1.3415 ± 0.0096
same,refractive index,[1]; w1 = 0.6,1.3569 ± 0.0096
same,refractive index,[1]; w1 = 0.9,1.3587 ± 0.0096
O=C(CO)[C@@H](O)[C@H](O)[C@H](O)CO [D-fructose] + O,refractive index,[1]; w1 = 0.2189,1.3687 ± 0.0096
same,refractive index,[1]; w1 = 0.3592,1.3945 ± 0.0096
same,refractive index,[1]; w1 = 0.4567,1.4159 ± 0.0096
same,refractive index,[1]; w1 = 0.5286,1.4339 ± 0.0096
same,refractive index,[1]; w1 = 0.5759,1.4393 ± 0.0096
same,refractive index,[1]; w1 = 0.579,1.4413 ± 0.0096
same,refractive index,[1]; w1 = 0.5836,1.4428 ± 0.0096
O [water],refractive index,[2],1.323 ± 0.0096
